Drawing on patent US20230373985A1 (Origenis Gmbh, priority 2020, published 2023), this text covers IC50 for 23 compounds.

For orientation: IC50 means the concentration that gives 50% inhibition.

Test [1] has as its target T1, wt human TYK2, catalytic site (Homo sapiens, UniProt P29597).
T1 construct: wt human TYK2, catalytic site; purchased SignalChem
T1 sequence (P29597 897-1176 limits assumed): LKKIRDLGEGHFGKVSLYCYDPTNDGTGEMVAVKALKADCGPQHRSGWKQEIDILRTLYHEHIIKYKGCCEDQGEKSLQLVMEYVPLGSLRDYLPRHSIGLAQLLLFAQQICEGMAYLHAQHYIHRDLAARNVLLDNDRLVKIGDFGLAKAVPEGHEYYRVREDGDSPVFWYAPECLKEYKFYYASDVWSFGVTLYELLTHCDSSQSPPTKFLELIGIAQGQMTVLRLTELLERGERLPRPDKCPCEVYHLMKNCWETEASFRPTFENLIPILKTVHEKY
Nature of the test: HTRF KinEASE assay, TYK2. The conditions noted are these: 1 μM ATP; read-out: IC50, Activity Toward TYK2. In kind it is biochemical. The protocol: (§1) Basic protocol for HTRF KinEASE assay (Cisbio/FRA) inhibitor studies involved two steps: • Enzymatic step: Addition of 4 μL of test compound in corresponding DMSO dilutions, 4 μL of kinase/substrate mixture, 2 μL of ATP into 384 well small volume plates. Incubation for at least 30 minutes at room temperature. • Detection step: Addition of 5 μL antibody and 5 μL streptavidin-XL665, read plate after 60 minutes. Data analysis of emission ratios according KinEASE assay protocol.
(§2) Kinase and assay components were adjusted to final concentrations according to kit protocol. For TYK2: 2 nM wt human TYK2, catalytic site (SignalChem/CAN), 1 μM HTRF KinEASE-TK Substrate-biotin, 1 μM ATP in 1× Kinase Buffer. For JAK1: 4 nM wt human JAK1, catalytic site (ThermoFisher/USA), 1 μM HTRF KinEASE-TK Substrate-biotin, 2.5 μM ATP in 1× Kinase Buffer. For JAK2: 1 nM wt human JAK2, catalytic site (SignalChem/CAN), 1 μM HTRF KinEASE-TK Substrate-biotin, 100 μM ATP in 1× Kinase Buffer.
as §2
In general terms: In TR-FRET formats the signal depends on donor and acceptor labels being close together.

For test [2], the target named is T2, wt human JAK1, catalytic site (Homo sapiens, UniProt P23458).
T2 construct: wt human JAK1, catalytic site; purchased ThermoFisher
The test is described as follows: HTRF KinEASE assay, JAK1. The settings on record: 2.5 μM ATP; read-out: IC50, Activity Toward JAK1. Format: biochemical. The protocol:
as §1
(§3) Kinase and assay components were adjusted to final concentrations according to kit protocol. For TYK2: 2 nM wt human TYK2, catalytic site (SignalChem/CAN), 1 μM HTRF KinEASE-TK Substrate-biotin, 1 μM ATP in 1× Kinase Buffer. […] For JAK2: 1 nM wt human JAK2, catalytic site (SignalChem/CAN), 1 μM HTRF KinEASE-TK Substrate-biotin, 100 μM ATP in 1× Kinase Buffer.
as §3

Some results are limits rather than exact numbers.

T2 sequence (P23458 875-1153 limits assumed): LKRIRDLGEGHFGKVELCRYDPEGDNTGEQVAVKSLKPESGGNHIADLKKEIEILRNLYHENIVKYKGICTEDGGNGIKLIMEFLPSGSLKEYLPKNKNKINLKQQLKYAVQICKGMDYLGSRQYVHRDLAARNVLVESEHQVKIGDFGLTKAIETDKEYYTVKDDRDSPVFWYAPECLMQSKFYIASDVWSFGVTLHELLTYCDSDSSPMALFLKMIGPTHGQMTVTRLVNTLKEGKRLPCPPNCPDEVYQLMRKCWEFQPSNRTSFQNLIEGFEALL

Turning to `NC(=O)c1nn(-c2c(Cl)cccc2Cl)cc1Nc1ccc(-n2nc(C(F)(F)F)nc2CO)cc1` [compound 371, 1-(2,6-dichlorophenyl)-4-((4-(5-(hydroxymethyl)-3-(trifluoromethyl)-1H-1,2,4-triazol-1-yl)phenyl)amino)-1H-pyrazole-3-carboxamide], the IC50 in test [1] was below 10 nM; in test [2] it was 100 to 1000 nM.
As to `NC(=O)c1nn(-c2c(Cl)cccc2Cl)cc1Nc1ccc(N2CCCCC2=O)nc1` [compound 384, 1-(2,6-dichlorophenyl)-4-((6-(2-oxopiperidin-1-yl)pyridin-3-yl)amino)-1H-pyrazole-3-carboxamide], the IC50 in test [1] and in test [2] was 100 to 1000 nM each time.
As for `Cn1ncc(Nc2cn(-c3c(Cl)cccc3Cl)nc2C(N)=O)n1` [compound 379, 1-(2,6-dichlorophenyl)-4-((2-methyl-2H-1,2,3-triazol-4-yl)amino)-1H-pyrazole-3-carboxamide], the IC50 in test [1] and in test [2] was 100 to 1000 nM throughout.
`CCc1cccnc1-c1ccc(Nc2cn(-c3c(Cl)cccc3Cl)nc2C(N)=O)cc1` [compound 234, 1-(2,6-dichlorophenyl)-4-((4-(3-ethylpyridin-2-yl)phenyl)amino)-1H-pyrazole-3-carboxamide]: the IC50 in test [2] fell in the range of 100 to 1000 nM.
For the compound `NC(=O)c1nn(-c2c(Cl)cccc2Cl)nc1Nc1cnn(CC(=O)N2CCOCC2)c1` [compound 168, 2-(2,6-dichlorophenyl)-5-((1-(2-morpholino-2-oxoethyl)-1H-pyrazol-4-yl)amino)-2H-1,2,3-triazole-4-carboxamide], the IC50 in test [1] and in test [2] was 10 to 100 nM throughout.
Turning to `NC(=O)c1nn(-c2c(Cl)cc(F)cc2Cl)nc1Nc1ccc(C(=O)N2CCS(=O)(=O)CC2)cc1` [compound 175, 2-(2,6-dichloro-4-fluorophenyl)-5-((4-(1,1-dioxidothiomorpholine-4-carbonyl)phenyl)amino)-2H-1,2,3-triazole-4-carboxamide], the IC50 in test [1] and in test [2] was below 10 nM throughout.
Regarding `CC(C)c1ncnn1-c1ccc(Nc2cn(-c3c(Cl)cccc3Cl)nc2C(N)=O)cc1` [compound 341, 1-(2,6-dichlorophenyl)-4-((4-(5-isopropyl-1H-1,2,4-triazol-1-yl)phenyl)amino)-1H-pyrazole-3-carboxamide], the IC50 lay within 10 to 100 nM in test [1] and 100 to 1000 nM in test [2].
As to `NC(=O)c1nn(-c2c(Cl)cccc2Cl)cc1Nc1ccc(C(=O)N2CCOCC2)cn1` [compound 74, 1-(2,6-dichlorophenyl)-4-((5-(morpholine-4-carbonyl)pyridin-2-yl)amino)-1H-pyrazole-3-carboxamide], the IC50 in test [1] and in test [2] was 10 to 100 nM each time.
Take `CN1CCC(N(C)C(=O)c2ccc(Nc3cn(-c4c(Cl)cc(F)cc4Cl)nc3C(N)=O)cc2)CC1` [compound 413, 1-(2,6-dichloro-4-fluorophenyl)-4-((4-(methyl(1-methylpiperidin-4-yl)carbamoyl)phenyl)amino)-1H-pyrazole-3-carboxamide]: the results for the IC50 in test [1] and in test [2] were below 10 nM and 10 to 100 nM, respectively.
For `Cn1cc(C(F)(F)F)nc1-c1ccc(Nc2cn(-c3c(Cl)cccc3Cl)nc2C(N)=O)cc1` [compound 294, 1-(2,6-dichlorophenyl)-4-((4-(1-methyl-4-(trifluoromethyl)-1H-imidazol-2-yl)phenyl)amino)-1H-pyrazole-3-carboxamide], the IC50 in test [1] is below 10 nM; in test [2], 10 to 100 nM.
Turning to `Cn1ccc(Oc2ccc(Nc3cn(-c4c(Cl)cccc4Cl)nc3C(N)=O)cc2)n1` [compound 78, 1-(2,6-dichlorophenyl)-4-((4-((1-methyl-1H-pyrazol-3-yl)oxy)phenyl)amino)-1H-pyrazole-3-carboxamide], the IC50 in test [1] lay in the range of 10 to 100 nM; in test [2] it was 100 to 1000 nM.
Regarding `CCc1cnnn1-c1ccc(Nc2nn(-c3c(Cl)cccc3Cl)nc2C(N)=O)cc1` [compound 126, 2-(2,6-dichlorophenyl)-5-((4-(5-ethyl-1H-1,2,3-triazol-1-yl)phenyl)amino)-2H-1,2,3-triazole-4-carboxamide], the figures for the IC50 in test [1] and in test [2] were 10 to 100 nM and below 10 nM, respectively.
The corresponding values for `Cn1cc(C(F)(F)F)nc1-c1ccc(Nc2nn(-c3c(Cl)cccc3Cl)nc2C(N)=O)nc1` [compound 144, 2-(2,6-dichlorophenyl)-5-((5-(1-methyl-4-(trifluoromethyl)-1H-imidazol-2-yl)pyridin-2-yl)amino)-2H-1,2,3-triazole-4-carboxamide] are 10 to 100 nM and 10 to 100 nM.
On to `NC(=O)c1nn(-c2c(Cl)cccc2Cl)nc1Nc1ccc(-n2nncc2C(F)(F)F)cc1` [compound 155, 2-(2,6-dichlorophenyl)-5-((4-(5-(trifluoromethyl)-1H-1,2,3-triazol-1-yl)phenyl)amino)-2H-1,2,3-triazole-4-carboxamide], for which the IC50 in test [2] lay within 10 to 100 nM.
As to `CS(=O)(=O)n1cc(Nc2nn(-c3c(Cl)cccc3Cl)nc2C(N)=O)cn1` [Compound No. 172, 2-(2,6-dichlorophenyl)-5-((1-(methylsulfonyl)-1H-pyrazol-4-yl)amino)-2H-1,2,3-triazole-4-carboxamide], in test [2], the IC50 fell in the range of 100 to 1000 nM.
As for `NC(=O)c1nn(-c2c(Cl)cccc2Cl)cc1Nc1ccc(-n2ccc(Cl)n2)cc1` [compound 76, 4-((4-(3-chloro-1H-pyrazol-1-yl)phenyl)amino)-1-(2,6-dichlorophenyl)-1H-pyrazole-3-carboxamide], in test [2], the IC50 is 100 to 1000 nM.
In the case of `NC(=O)c1nn(-c2c(Cl)cccc2Cl)cc1Nc1ccc(-n2nncc2C(F)(F)F)cn1` [compound 437, 1-(2,6-dichlorophenyl)-4-((5-(5-(trifluoromethyl)-1H-1,2,3-triazol-1-yl)pyridin-2-yl)amino)-1H-pyrazole-3-carboxamide], in test [2], the IC50 was 100 to 1000 nM.
As to `Cc1cn(-c2ccc(Nc3cn(-c4c(Cl)cccc4Cl)nc3C(N)=O)cc2)nc1C` [compound 217, 1-(2,6-dichlorophenyl)-4-((4-(3,4-dimethyl-1H-pyrazol-1-yl)phenyl)amino)-1H-pyrazole-3-carboxamide], the IC50 in test [2] lay within 100 to 1000 nM.
On the same count and under the same terms, the value for `CCc1c(C)nn(-c2ccc(Nc3cn(-c4c(Cl)cccc4Cl)nc3C(N)=O)cc2)c1C` [compound 222, 1-(2,6-dichlorophenyl)-4-((4-(4-ethyl-3,5-dimethyl-1H-pyrazol-1-yl)phenyl)amino)-1H-pyrazole-3-carboxamide] was 100 to 1000 nM.
Take `CCc1nc(C(F)(F)F)nn1-c1ccc(Nc2nn(-c3c(Cl)cccc3Cl)nc2C(N)=O)cc1` [compound 121]: the IC50 in test [2] fell in the range of 100 to 1000 nM.
Turning to `NC(=O)c1nn(-c2c(Cl)cccc2Cl)cc1Nc1ccc(-n2nc3c(c2C(F)(F)F)CCCC3)cc1` [compound 236, 1-(2,6-dichlorophenyl)-4-((4-(3-(trifluoromethyl)-4,5,6,7-tetrahydro-2H-indazol-2-yl)phenyl)amino)-1H-pyrazole-3-carboxamide], the IC50 in test [1] was in the range of 100 to 1000 nM.
Take `NC(=O)c1nn(-c2c(F)cccc2F)cc1Nc1ccc(N)cn1` [compound 6, 4-((5-aminopyridin-2-yl)amino)-1-(2,6-difluorophenyl)-1H-pyrazole-3-carboxamide]: the IC50 in test [1] lay within 100 to 1000 nM.
Consider `NC(=O)c1nn(-c2c(Cl)cccc2Cl)cc1Nc1ccc(-c2nc(C(F)(F)F)cn2C2COC2)cc1` [compound 301, 1-(2,6-dichlorophenyl)-4-((4-(1-(oxetan-3-yl)-4-(trifluoromethyl)-1H-imidazol-2-yl)phenyl)amino)-1H-pyrazole-3-carboxamide], for which the IC50 in test [1] is below 10 nM.
